In US5134137A, “Cephalosporin antibiotics” (The Upjohn Company, priority 1990, dated 1992):

What was measured:
Salmonella typhimurium = test: Systemic infection model in mice, ED50, Salmonella typhimurium; type: in vivo; details: Salmonella enterica, TYPHIMURIUM / UC6164, sc, 144 h, strain UC6164, lactamase producing, subcutaneous, 0, 24, 48 hours post infection, 50% survival six days post infection, per day, read-out: ED50 (95% confidence limits)
Description: (§1) Experimental Infections and Antitiotic Treatment (for ED50 in mice tests).
(§2) Mice are infected and treated with the test antibiotic compound according to procedures described previously [Yancey, Jr., R. J. et at. supra].
(§3) The test antibiotic compound is administered subcutaneously immediately following infection, then at 24 hours and 48 hours post infection. The medium effective dose (ED50) number is determined for all infections. The ED50 value is defined as the calculated concentration of the test antibiotic compound in mg. of compound per kilogram of mouse body weight per day at which 50% of the animals survived six days post infection.

P. hemolytica = test: Systemic infection model in mice, ED50, P. hemolytica; type: in vivo; details: Mus musculus, sc, 144 h, strain UC6532, lactamase producing, subcutaneous, 0, 24, 48 hours post infection, 50% survival six days post infection, per day, read-out: ED50 (95% confidence limits)
Description: as §1, §2, §3

`CC1(C)S[C@@H]2[C@H](NC(=O)[C@H](N)c3ccccc3)C(=O)N2[C@H]1C(=O)O` [ampicillin] gave an ED50 (Salmonella typhimurium) greater than 100 mg/kg and an ED50 (P. hemolytica) greater than 100 mg/kg.
